Laboratory results taken from patent US10286038B2, “Lysosome membrane protein 2 (LIMP-2) based peptides and related uses” (Northwestern University, priority 2016, dated 2019).
Where a chain is given by its changes, count along the chain named.

How the values were obtained:
[1] = target: T1, recombinant GC (Cerezyme) (Homo sapiens, UniProt P04062, R534H); assay: recombinant GC activity assay; format: biochemical; settings: tenfold molar excess of peptide, acid pH, relative to buffer control
T1 construct: purchased Genzyme Therapeutics, Boston, USA
T1 sequence (P04062 40-536 R534H): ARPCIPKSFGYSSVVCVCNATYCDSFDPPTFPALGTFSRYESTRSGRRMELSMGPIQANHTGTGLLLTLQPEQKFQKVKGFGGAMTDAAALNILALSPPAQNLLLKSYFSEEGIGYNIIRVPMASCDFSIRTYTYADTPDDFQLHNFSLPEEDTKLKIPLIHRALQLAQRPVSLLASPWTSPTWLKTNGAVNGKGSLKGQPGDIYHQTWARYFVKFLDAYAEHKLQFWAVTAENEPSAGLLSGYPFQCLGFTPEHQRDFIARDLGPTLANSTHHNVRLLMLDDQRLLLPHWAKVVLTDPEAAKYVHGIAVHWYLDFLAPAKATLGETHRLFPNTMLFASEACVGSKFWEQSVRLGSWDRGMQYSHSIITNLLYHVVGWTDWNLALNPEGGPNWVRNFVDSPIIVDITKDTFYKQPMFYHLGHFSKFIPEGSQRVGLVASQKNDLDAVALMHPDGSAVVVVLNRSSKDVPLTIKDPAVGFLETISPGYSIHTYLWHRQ
Experimental: Expression plasmids of LIMP-2 and human GC constructs were generated as described previously (1). For Western blotting nitrocellulose or PVDF membranes were used. EndoH/PNGaseF digests were performed according to manufacturer's instructions (New England Biolabs, Ipswich, USA). For co-immunoprecipitation experiments magnetic agarose G beads (Thermo Fisher Scientific, Waltham, USA) were utilized. Immunofluorescence studies were performed in cells as previously described (1, 3). Cellular co-localization of two proteins was determined by the Pearson's Index (35). Enzyme activity assays of cell lysates or recombinant protein were measured at acid pH using absorbent and fluorescent artificial substrates. For peptide studies, peptides were N-terminally tagged with biotin. If not stated otherwise, recombinant enzyme was incubated with a tenfold higher molarity of peptides. Conditions for pulldown experiments were kept at neutral pH. Protein modelling, molecular analyses, graphics and animations were performed with the UCSF Chimera package.
To determine the enzymatic activity of the recombinant enzymes, lyophilized enzymes were reconstituted in the NaPi buffer described above. The lyophilized samples of wild-type GC (Cerezyme®) and the custom-made recombinant N307S mutant enzyme contain 0.01% polysorbate 80 (Tween 80) (see prescription information for Cerezyme® at the website for Cerezyme®). As indicated in our experiments, the concentration of the detergent is sufficient to support active GC enzyme and to perform the in vitro GC activity assays without adding further detergents to the reaction mix. For enzyme activity assays of recombinant proteins, 0.1-0.2 nmol of GC (Cerezyme®; N370S) and LAMAN were used in the absence or presence of 10× the molar amount of LIMP-2-derived peptides (Table 1) or LIMP-2 ectodomain (1-2 nmol) (Table 3).
All activity assays were performed at acid pH.

[2] = target: T2, lysosomal GC of living H4 cells (Homo sapiens, UniProt P04062); assay: live-cell lysosomal GC activity assay in H4 cells; format: cell-based; settings: 10 μM TAT peptide, relative to buffer control
T2 construct: Lysosomal GC activity of living H4 cells measured in vivo after incubation with uptake-optimized TAT-peptides; endogenous in cells; host or cells: H4 human neuroglioma cells (for the 74 h course: stably overexpressing α-synuclein)
T2 sequence (P04062 40-536): T1 sequence (P04062 40-536 R534H) with H495R
Experimental: Lysosomal GC activity in living cells was assessed by applying a drug-response assay in the presence and absence of a lysosomal inhibitor (bafilomycin A1; Invivogen) dissolved in DMSO (24). TAT peptides (10 μM) were added to the cell medium for 1 h; then H4 cells (see Table 5) were incubated with 100 μg/mL cell-permeable artificial substrate 5-(pentafluorobenzoylamino) fluorescein di-β-D-glucopyranoside (PFB-FDGlu) (Life Technologies, Thermo Fisher Scientific) for another hour. Cells were washed with warm medium; then the medium was replaced with phenol red-free neurobasal medium (Life Technologies, Thermo Fisher Scientific). The fluorescence intensity was recorded every 30 min for β-4 h in a SpectraMax i3 plate reader (Molecular Devices) (PFB-FDGlu: excitation=485 nm, emission=530 nm). After the final reading, cells were fixed in 4% formaldehyde/PBS and were stained with CellTag 700 (LICOR Biosciences) according to the manufacturer's instructions to measure cell volume. The plate was scanned on an Odyssey infrared imager (LI-COR Biosciences). Fluorescence intensities were normalized to cell volume and graphed versus time. Whole-cell activity was obtained by calculating the area below the DMSO curve. Nonlysosomal activity corresponds to the area under the bafilomycin A1 curve. Lysosomal activity was obtained by subtracting both areas (FIG. 6H).

recombinant GC = target: T3, recombinant GC (Homo sapiens, UniProt P04062, R534H); assay: stabilization assay of recombinant GC at 37° C.; format: biochemical; settings: recombinant GC incubated with peptide at 37° C.
T3 construct: purchased Genzyme Therapeutics, Boston, USA
T3 sequence (P04062 40-536 R534H): T1 sequence (P04062 40-536 R534H)
Experimental: Proteins were visualized by coomassie staining (CBB). […] See also FIG. 6.
To address the functional impact of the observed interaction between the helix 5 peptide and recombinant GC, we measured GC activity in the presence of a one- to tenfold molar excess of the helix 5 peptide. […] No effect on enzymatic activity after incubation with the helix 5 peptide or the LIMP-2 ectodomain could be found for recombinant α-mannosidase (LAMAN) further emphasizing the specificity of the helix 5 peptide on GC activity (FIG. 6E). […] To analyze if the increase in GC activity is due to stabilization of the enzyme, recombinant GC was incubated with the helix 5 and the control peptide at 37° C. and the activity of GC was measured at regular intervals (FIG. 3F).

| Substance | increase of recombinant GC enzyme activity [1] | elevation of GC activity within lysosomes of living cells [2] | increase of recombinant GC enzyme activity ([1]; listed as LIMP-2-derived helix 5 peptide) | GC enzymatic activity remaining at 72 hours (recombinant GC) |
| --- | --- | --- | --- | --- |
| Biotin-Ttds-KFERQLREIIEAMLKAYQQKLFVTHTVDEYGRKKRRQRRR [helix 5 TAT-peptide] | comparable effect | 18% |  |  |
| Biotin-Ttds-LREIIEAMLKAYQQKLFVTHTVDE [helix 5 peptide] | five times |  | five-fold increase | still displayed significant enzymatic activity |
